Experimental findings from patent US20110110879A1, “Compositions and Methods for Enhancing Eyelashes” (Avon Products, Inc., priority 2009, published 2011) are described below.

One experiment deals with keratin 5. Description: In vitro assay for keratin 5 production in keratinocytes. It counts as cell-based. Conditions: concentration of 0.01%.
For the next experiment, the system named is fibronectin. Conditions: fibroblasts; concentrations of 2×10^−5% and 2×10^−6%.
The test system of another experiment is elastin. Conditions: fibroblasts; concentrations of 2×10^−5% and 2×10^−6%.
A further experiment deals with MMP-3 (Homo sapiens, UniProt P08254). Description: In vitro assay of MMP-3 enzymatic activity. It counts as biochemical. Conditions: concentration of 2×10^−7%.
For a further experiment, the system named is collagen IV. Particulars: fibroblasts; concentrations of 2×10^−5% and 2×10^−6%.
Experiment [1] deals with lipid peroxidation in keratinocytes. Description: In vitro assay of lipid peroxidation in keratinocytes. It counts as cell-based. Conditions: concentration of 0.001%.

Chain of MMP-3 (P08254 100-477, species assumed): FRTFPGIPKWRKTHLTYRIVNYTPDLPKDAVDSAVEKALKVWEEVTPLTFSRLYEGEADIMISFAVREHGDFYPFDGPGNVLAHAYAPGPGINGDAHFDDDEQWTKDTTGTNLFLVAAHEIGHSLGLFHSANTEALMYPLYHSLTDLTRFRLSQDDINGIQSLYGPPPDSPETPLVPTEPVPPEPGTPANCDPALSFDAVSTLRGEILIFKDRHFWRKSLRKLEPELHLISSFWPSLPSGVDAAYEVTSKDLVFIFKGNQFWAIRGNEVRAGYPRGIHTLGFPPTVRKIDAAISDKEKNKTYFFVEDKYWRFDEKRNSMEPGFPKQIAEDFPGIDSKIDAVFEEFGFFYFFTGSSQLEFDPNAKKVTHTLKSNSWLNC

`CN(CC(=O)O)C(=N)N` [creatine]: in the experiment on keratin 5, the “keratin 5 production” value was “can increase keratin 5 production”.

As for N-biotinyl-gly-his-lys, the production of fibronectin result in the experiment on fibronectin was “can increase production”. The production of elastin result with elastin was “can increase production”. The “enzymatic activity of MMP-3” value at MMP-3 is “can decrease enzymatic activity”. The “production of collagen IV” value in the experiment with collagen IV is recorded as “can increase production”.

Turning to `CC(=O)Oc1c(C)c(C)c2c(c1C)CCC(C)(CCC[C@H](C)CCC[C@H](C)CCCC(C)C)O2` (stereo partly drawn) [tocopherol acetate], the lipid peroxidation entry in experiment [1] is “can inhibit lipid peroxidation”.
